The supplement of paper PMC10627819

What was measured:
[1] = test system: S. aureus Newman; assay: Bliss interaction score (quartile over a dose matrix) (fitness difference); higher = more antagonism (negative = synergy)
In short: (§1)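 Fitness here means normalised growth, inferred for single drugs from the combination data. Growth was OD595 at entry into stationary phase, divided by the plate's robust no-drug mean and capped at 1. The Bliss score is observed minus expected fitness, with the expectation being the product, and its quartiles span technical, biological and donor/recipient replicates.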

[2] = test system: S. aureus DSM 20231; assay: as above
In short: as §1

[3] = test system: B. subtilis 168; assay: as above
In short: as §1

[4] = test system: S. pneumoniae D39V; assay: as above
In short: as §1

[5] = test system: S. pneumoniae D39V; assay: fitness (endpoint OD595 vs no drug) (fraction); higher = more growth
In short: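 Fitness expresses the optical density reached at the stationary-phase transition as a fraction of the robust mean of no-drug control wells. It is capped at 1. Measurements were OD595 every 30 min for 14 h at 37 °C after inoculation of 384-well plates at OD595 0.01 (30 µl, or 55 µl for S. pneumoniae), minus the first reading.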
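Throughout, for Bliss interaction score (quartile over a dose matrix): first quartile when negative (synergy) and third quartile when positive (antagonism).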
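Throughout, for fitness (endpoint OD595 vs no drug): OD595 on entry to stationary phase over no-drug wells; at most 1.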

CC1(C)S[C@@H]2[C@H](NC(=O)[C@H](N)c3ccc(O)cc3)C(=O)N2[C@H]1C(=O)O [Amoxicillin] + O=C1CN(/N=C/c2ccc([N+](=O)[O-])o2)C(=O)N1 [Nitrofurantoin]
Details	Bliss interaction score
[1]	0.0375
[2]	-0.0521
[3]	-0.206
[4]	0.11

fitness, [5]
Details	partner 1.285 µg/mL	partner 2 µg/mL	partner 2.57 µg/mL	partner 4 µg/mL	partner 8 µg/mL
first compound 0.0008 µg/mL	≥ 1	–	0.957	–	–
first compound 0.0015 µg/mL	0.92	0.906	0.962	0.897	0.903
first compound 0.003 µg/mL	0.909	0.859	0.922	0.868	0.875

fitness, [5], one replicate
Details	first compound 0.0008 µg/mL	first compound 0.0015 µg/mL	first compound 0.003 µg/mL	first compound 0.006 µg/mL
partner 2 µg/mL	0.93	–	–	0.43
partner 4 µg/mL	0.979	–	–	0.433
partner 5.14 µg/mL	0.928	0.921	0.857	–
partner 8 µg/mL	0.944	–	–	0.514

CO/N=C(\C(=O)N[C@@H]1C(=O)N2C(C(=O)[O-])=C(C[N+]3(C)CCCC3)CS[C@H]12)c1csc(N)n1 [Cefepime] + CCC(C)C1C(=O)NC(=C)C(=O)NC(C(=O)NC(CSCC(C(=O)N1)NC(=O)/C(=C/C)/NC(=O)C(C(C)CC)N)C(=O)NC2C(SCC(NC(=O)CNC(=O)C3CCCN3C2=O)C(=O)NC(CCCCN)C(=O)NC4C(SCC(NC(=O)CNC(=O)C(NC(=O)C(NC(=O)C(NC(=O)CNC4=O)C)CC(C)C)CCSC)C(=O)NC(CC(=O)N)C(=O)NC(CCSC)C(=O)NC(CCCCN)C(=O)NC5C(SCC6C(=O)NC(C(=O)NC(CSC(C(C(=O)N6)NC(=O)C(NC5=O)C)C)C(=O)NC(CO)C(=O)NC(C(C)CC)C(=O)NC(CC7=CN=CN7)C(=O)NC(C(C)C)C(=O)NC(=C)C(=O)NC(CCCCN)C(=O)O)CC8=CN=CN8)C)C)C)CC(C)C [Nisin]
main component drawn
Details	Bliss interaction score
[1]	-0.0777
[2]	-0.0745
[3]	-0.0465
[4]	-0.0526

[5], main component drawn
Details	fitness
first compound 0.007 µg/mL, partner 1.6 µg/mL	0.0039
first compound 0.007 µg/mL, partner 3.2 µg/mL	0.0024
first compound 0.007 µg/mL, partner 6.4 µg/mL	0.0023
first compound 0.0078 µg/mL, partner 0.4275 µg/mL	0.996
first compound 0.0078 µg/mL, partner 0.855 µg/mL	≥ 1
first compound 0.0078 µg/mL, partner 1.71 µg/mL	0.189
first compound 0.014 µg/mL, partner 1.6 µg/mL	0.0058
first compound 0.014 µg/mL, partner 3.2 µg/mL	0.0156
first compound 0.014 µg/mL, partner 6.4 µg/mL	0.0123
first compound 0.0155 µg/mL, partner 0.4275 µg/mL	0.996
first compound 0.0155 µg/mL, partner 0.855 µg/mL	0.974
first compound 0.0155 µg/mL, partner 1.71 µg/mL	0.126
first compound 0.028 µg/mL, partner 1.6 µg/mL	0.0484
first compound 0.028 µg/mL, partner 3.2 µg/mL	0.0251
first compound 0.028 µg/mL, partner 6.4 µg/mL	0.0152
first compound 0.031 µg/mL, partner 1.71 µg/mL	0.103

CO/N=C(\C(=O)N[C@@H]1C(=O)N2C(C(=O)[O-])=C(C[N+]3(C)CCCC3)CS[C@H]12)c1csc(N)n1 [Cefepime] + CN(C)C(=O)C(CCN1CCC(O)(c2ccc(Cl)cc2)CC1)(c1ccccc1)c1ccccc1 [Loperamide]
Details	Bliss interaction score
[1]	0.0533
[2]	0.156
[3]	-0.171
[4]	-0.0863

[5]
Details	fitness
first compound 0.007 µg/mL, partner 20 µg/mL	≥ 1
first compound 0.007 µg/mL, partner 40 µg/mL	≥ 1
first compound 0.007 µg/mL, partner 80 µg/mL	0.913
first compound 0.0078 µg/mL, partner 17.14 µg/mL	≥ 1
first compound 0.0078 µg/mL, partner 34.28 µg/mL	0.969
first compound 0.014 µg/mL, partner 20 µg/mL	≥ 1
first compound 0.014 µg/mL, partner 40 µg/mL	≥ 1
first compound 0.0155 µg/mL, partner 17.14 µg/mL	0.952
first compound 0.0155 µg/mL, partner 34.28 µg/mL	0.854
first compound 0.028 µg/mL, partner 20 µg/mL	0.911
first compound 0.028 µg/mL, partner 40 µg/mL	0.841

[5], partner 68.57 µg/mL, one replicate
Details	fitness
first compound 0.0078 µg/mL	≥ 1
first compound 0.0155 µg/mL	≥ 1
first compound 0.031 µg/mL	0.48

CO/N=C(\C(=O)N[C@@H]1C(=O)N2C(C(=O)[O-])=C(C[N+]3(C)CCCC3)CS[C@H]12)c1csc(N)n1 [Cefepime] + CO[C@H]1/C=C/O[C@@]2(C)Oc3c(C)c(O)c4c(O)c(c(/C=N/N5CCN(C)CC5)c(O)c4c3C2=O)NC(=O)/C(C)=C\C=C\[C@H](C)[C@H](O)[C@@H](C)[C@@H](O)[C@@H](C)[C@H](OC(C)=O)[C@@H]1C [Rifampicin]
Details	Bliss interaction score
[1]	0.035
[2]	0.136
[3]	0.118
[4]	0.0513

fitness, [5]
Details	first compound 0.007 µg/mL	first compound 0.014 µg/mL	first compound 0.0155 µg/mL	first compound 0.028 µg/mL	first compound 0.031 µg/mL
partner 0.025 µg/mL	≥ 1	0.992	–	0.93	–
partner 0.05 µg/mL	≥ 1	0.995	–	0.936	–
partner 0.1 µg/mL	0.477	0.47	0.325	0.222	0.208

fitness, [5], one replicate
Details	first compound 0.0078 µg/mL	first compound 0.0155 µg/mL	first compound 0.031 µg/mL
partner 0.025 µg/mL	0.884	0.779	0.31
partner 0.2 µg/mL	0	0	0

CO/N=C(\C(=O)N[C@@H]1C(=O)N2C(C(=O)[O-])=C(C[N+]3(C)CCCC3)CS[C@H]12)c1csc(N)n1 [Cefepime] + C[C@@H](O)[C@H]1C(=O)N2C(C(=O)O)=C(SCCNC=N)C[C@H]12 [Imipenem]
Details	Bliss interaction score
[1]	0.155
[2]	-0.0424
[3]	-0.106
[4]	0.068

fitness, [5]
Details	first compound 0.007 µg/mL	first compound 0.0078 µg/mL	first compound 0.014 µg/mL	first compound 0.0155 µg/mL	first compound 0.028 µg/mL	first compound 0.031 µg/mL
partner 0.005 µg/mL	0.987	–	0.979	–	0.92	–
partner 0.0065 µg/mL	–	1	–	0.971	–	0.39
partner 0.01 µg/mL	0.984	–	≥ 1	–	0.902	–
partner 0.013 µg/mL	–	≥ 1	–	0.98	–	0.495
partner 0.02 µg/mL	0.986	–	0.991	–	0.881	–
partner 0.026 µg/mL	–	0.995	–	0.915	–	0.325
